From the supplement of paper PMC9938120

Assays:
Assay in all cases: drug sensitivity score (DSS3, normalised partial AUC of % inhibition dose-response) (DSS (score)); higher = more sensitive (stronger inhibition of viability); extreme values may be limits of the assay
Conditions in all cases: 72 h; library: FO5A; assay format: 2D, 384-well, CellTiter-Glo
FMOC02_1 = test system: FMOC02_1 (patient-derived low-grade serous ovarian cancer cells)
Method in brief: (§1)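 The drug sensitivity score is calculated as a partial area under the percent-inhibition dose-response curve, divided by the log of the upper asymptote; higher scores mean more sensitive. For this score, early-passage (under 10) patient-derived ovarian cancer cells were exposed on 384-well flat clear-bottom plates to compounds at five concentrations across a 10,000-fold range for 72 h at 37 °C, 5% CO2. Viability was read with CellTiter-Glo and processed in Breeze.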

FMOC02_2 = test system: FMOC02_2 (patient-derived low-grade serous ovarian cancer cells)
Method in brief: as §1

FMOC02_3 = test system: FMOC02_3 (patient-derived low-grade serous ovarian cancer cells)
Method in brief: as §1

FMOC03 = test system: FMOC03 (patient-derived mucinous ovarian cancer cells)
Method in brief: as §1

FMOC04 = test system: FMOC04 (patient-derived high-grade serous ovarian cancer cells)
Method in brief: as §1

FMOC06 = test system: FMOC06 (patient-derived mucinous ovarian cancer cells)
Method in brief: as §1

FMOC09 = test system: FMOC09 (patient-derived high-grade serous ovarian cancer cells)
Method in brief: as §1

FMOC11 = test system: FMOC11 (patient-derived high-grade serous ovarian cancer cells)
Method in brief: as §1

FMOC14 = test system: FMOC14 (patient-derived high-grade serous ovarian cancer cells)
Method in brief: as §1

FMOC17 = test system: FMOC17 (patient-derived low-grade serous ovarian cancer cells)
Method in brief: as §1

FMOC22 = test system: FMOC22 (patient-derived mucinous ovarian cancer cells)
Method in brief: as §1

FMOC24 = test system: FMOC24 (patient-derived high-grade serous ovarian cancer cells)
Method in brief: as §1

FMOC25_2 = test system: FMOC25_2 (patient-derived low-grade serous ovarian cancer cells)
Method in brief: as §1

FMOC27 = test system: FMOC27 (patient-derived low-grade serous ovarian cancer cells)
Method in brief: as §1

FMOC28 = test system: FMOC28 (patient-derived low-grade serous ovarian cancer cells)
Method in brief: as §1

| Structure (SMILES) | drug sensitivity score (FMOC02_1) | drug sensitivity score (FMOC02_2) | drug sensitivity score (FMOC02_3) | drug sensitivity score (FMOC03) | drug sensitivity score (FMOC04) | drug sensitivity score (FMOC06) | drug sensitivity score (FMOC09) | drug sensitivity score (FMOC11) | drug sensitivity score (FMOC14) | drug sensitivity score (FMOC17) | drug sensitivity score (FMOC22) | drug sensitivity score (FMOC24) | drug sensitivity score (FMOC25_2) | drug sensitivity score (FMOC27) | drug sensitivity score (FMOC28) |
| --- | --- | --- | --- | --- | --- | --- | --- | --- | --- | --- | --- | --- | --- | --- | --- |
| CN(C(=O)c1ccc(F)cc1C(F)(F)F)C1CCN(c2nnc(-c3ccnn3C)c3ccccc23)CC1 [Taladegib] | 0 | 0 | 0 | 0 | 0 | 0 | 0 | 0 | 0 | 0 | 0 | 0 | 0 | 0 | 0 |
| CC#CC(=O)N1CCC[C@H]1c1nc(-c2ccc(C(=O)Nc3ccccn3)cc2)c2c(N)nccn12 [Acalabrutinib] | 0.3 | 0 | 0.7 | 0 | 0.6 | 2.6 | 0.8 | 0.2 | 0 | 2.2 | 0 | 0 | 0 | 0 | 0.5 |
| CCc1nc(C(N)=O)c(Nc2ccc(N3CCC(N4CCN(C)CC4)CC3)c(OC)c2)nc1NC1CCOCC1 [Gilteritinib] | 4.2 | 3.2 | 4.5 | 0.1 | 1.1 | 4.5 | 1.7 | 1.9 | 0 | 1.7 | 0.1 | 0.1 | 4.4 | 0 | 0.5 |
| COCCNCc1ccc(-c2cc3nccc(Oc4ccc(NC(=S)NC(=O)Cc5ccc(F)cc5)cc4F)c3s2)nc1 [Glesatinib] | 0 | 0 | 0 | 0 | 0 | 0 | 0 | 0 | 0.2 | 0 | 0 | 0.6 | 0 | 0 | 2.9 |
| COc1cccc(-c2ccc(NC(=O)C3=C(C(=O)O)CCC3)c(F)c2)c1 [Vidofludimus] | 0 | 0 | 0 | 0.4 | 0.05 | 0 | 0 | 0.6 | 0 | 0 | 0 | 0 | 2.5 | 0 | 0 |
| CN1CCN(C(=O)c2ccc3cc(CCNc4ncnc5ccc(C#N)cc45)ccc3c2)CC1 [Senexin B] | 0.6 | 1.3 | 2.9 | 1.5 | 0 | 1 | 0 | 0 | 0 | 0.6 | 0 | 0.2 | 1.2 | 0 | 0 |
| CNC(=O)c1ccc(-c2cnc3ncc(Cc4ccc5ncccc5c4)n3n2)cc1F [Capmatinib] | 0 | 0 | 0 | 0 | 0 | 0 | 0 | 0 | 0.1 | 0 | 0 | 0 | 0 | 0.5 | 0 |
| O[C@H](C[C@H]1c2c(F)cccc2-c2cncn21)[C@H]1CC[C@H](O)CC1 [GDC-0919] | 0.2 | 3.6 | 2.1 | 0.1 | 0 | 1 | 0.3 | 1.7 | 0.8 | 0.8 | 0.4 | 0.55 | 0.1 | 2 | 2.2 |
| CONC(=O)c1ccccc1Nc1cc(Nc2cc(C)nn2C(C)C)ncc1Cl | 0 | 1.6 | 1 | 0 | 0 | 0 | 1.4 | 0 | 0 | 0.3 | 0 | 0.2 | 1.7 | 0 | 0 |
| O=C(Nc1cnn2ccc(N3CCC[C@@H]3c3cc(F)ccc3F)nc12)N1CC[C@H](O)C1 [Larotrectinib] | 0 | 0 | 0 | 0 | 0 | 0 | 0 | 0 | 0 | 0 | 0 | 0 | 0 | 0 | 0 |
| Cn1cc(-c2ccc(F)c(C(F)(F)F)c2)nc1C1CCN(c2ncnc3[nH]ncc23)CC1 | 3.1 | 3.9 | 5.4 | 0 | 0 | 0 | 0 | 0 | 0 | 0.6 | 0 | 0 | 5.6 | 0.1 | 3.8 |
| COc1cc(OC)cc(N(CCNC(C)C)c2ccc3ncc(-c4cnn(C)c4)nc3c2)c1 [Erdafitinib] | 0 | 0 | 2.1 | 0 | 0 | 0 | 0 | 0.7 | 0 | 0.3 | 0 | 1.1 | 0.4 | 0 | 0 |
| COCCOc1cnc2ccn([C@H](C)c3nnc4c(F)cc(-c5cnn(C)c5)cn34)c(=O)c2c1 [AMG-337] | 0 | 0 | 0 | 0 | 0 | 0 | 0 | 0 | 0 | 0 | 0 | 0 | 0 | 0 | 3.4 |
| Cc1cn(-c2cc(NC(=O)c3ccc(C)c(Nc4nccc(-c5cnccn5)n4)c3)cc(C(F)(F)F)c2)cn1 [Radotinib] | 0 | 0 | 0 | 0 | 0 | 2.4 | 0 | 0 | 0 | 0 | 0 | 1 | 0.2 | 0 | 1.6 |
| CC(O)c1cc(C(=O)N[C@@H](C)Cn2ccc(-c3ccc(C#N)c(Cl)c3)n2)n[nH]1 (stereo not given in full) [ODM-201] | 0 | 0 | 0 | 0.4 | 0 | 0.7 | 0.9 | 0 | 0 | 0 | 0 | 0 | 0.5 | 0 | 0 |
| O=C(CCNC(=O)c1ccc(OC(F)(F)F)cc1)N[C@@H]1CCCc2ccccc21 [ML390] | 5.3 | 3 | 4.2 | 4.6 | 2.9 | 0.3 | 0 | 3.6 | 0 | 2 | 4.8 | 0.8 | 6 | 3.4 | 2.2 |
| CC[C@@H]1CN(C(=O)NCC(F)(F)F)C[C@@H]1c1cnc2cnc3[nH]ccc3n12 [Upadacitinib] | 0 | 0 | 0 | 0 | 0.1 | 1.3 | 0 | 0 | 0 | 0 | 0 | 1.2 | 0 | 0 | 2.1 |
| O=C(NCc1ccncc1)C12CC3CC(C1)CC(c1ccc(Cl)cc1)(C3)C2 | 2.6 | 3.2 | 5.3 | 4.5 | 2 | 5.6 | 4.2 | 5.8 | 1.6 | 3.1 | 5.2 | 4.7 | 3.1 | 4.1 | 4.8 |
| O=c1ncn2nc(Sc3ccc(F)cc3F)ccc2c1-c1c(Cl)cccc1Cl [Neflamapimod] | 0 | 0 | 0 | 0 | 0 | 0.3 | 1.1 | 1 | 0 | 0 | 0 | 0.05 | 0 | 0.1 | 1.1 |
| COCC[n+]1c2c(n(Cc3cnccn3)c1C)C(=O)c1ccccc1C2=O [Sepantronium bromide] | 38.4 | 30.6 | 36.1 | 39 | 38.1 | 32.9 | 43.7 | 37.8 | 42.6 | 36.9 | 33.2 | 33.5 | 41.4 | 30.9 | 43 |
| Cc1nc(C(=O)NCC(=O)O)c(O)c2ccc(Oc3ccccc3)cc12 [Roxadustat] | 0 | 0 | 0 | 0 | 0 | 0 | 0 | 0 | 0 | 0 | 0 | 3.3 | 0 | 0.2 | 0 |
| Cc1ccc(=O)n(-c2ccccc2)c1 [Pirfenidone] | 0 | 0 | 0 | 0 | 0 | 0 | 0 | 0.1 | 0 | 0.6 | 0 | 0 | 0 | 0 | 0 |
| O=c1[nH]c(=O)n([C@H]2C[C@H](O)[C@@H](CO)O2)cc1C(F)(F)F [Trifluridine] | 0 | 0 | 0 | 0 | 0 | 1.2 | 0 | 0.3 | 0 | 0 | 0 | 0 | 0.2 | 0.5 | 0 |
| C[C@H]1CNCCCN1S(=O)(=O)c1cccc2cncc(F)c12 [Ripasudil] | 0 | 0 | 0 | 0 | 0 | 0 | 0 | 0 | 0 | 0 | 0 | 0 | 0 | 0 | 0 |
| CC#CC(=O)N1CC[C@@H](n2c(=O)n(-c3ccc(Oc4ccccc4)cc3)c3c(N)ncnc32)C1 [Tirabrutinib] | 3.9 | 3.9 | 3.5 | 1.8 | 0 | 0 | 0 | 1.6 | 0 | 2.6 | 0 | 0 | 3.5 | 1.1 | 0 |
| CCOCc1nc2c(N)nc3ccccc3c2n1CC(C)(C)O [Resiquimod] | 0 | 0 | 0 | 0 | 0 | 0.6 | 0.2 | 0 | 0 | 0 | 0 | 1.5 | 0 | 0 | 0 |
